Measured values published in US7709458B2, “Method for inhibiting cancer cell proliferation or increasing cancer cell apoptosis” (priority 2004, dated 2010).
“Also recorded” adds a separate entry of the source.

What was measured:
Assay type in all cases: cell-based
[1] = system: H508 human colon cancer cells; assay: H508 colon cancer cell proliferation assay (sulforhodamine B colorimetric assay); conditions: for effect on EGF-induced H508 cell proliferation: EGF 1 ng/ml; for effect on acetylcholine-induced H508 cell proliferation: acetylcholine 300 μM
Protocol: H508 colon cancer cell culture. H508 human colon cancer cells were grown in RPMI 1640 (ATCC) supplemented with 10% fetal bovine serum (FBS) (Biowhittaker). Adherent cultures were passaged weekly at subconfluence after trypsinization. Cultures were maintained in incubators at 37° C. in an atmosphere of 5% CO2 and 95% air.
H508 colon cancer cell proliferation assay. Cell proliferation was determined using the sulforhodamine B (SRB) colorimetric assay (Skehan et al., 1990). Cells were seeded in 96-well plates (Corning Glass Works, Corning, N.Y.) at approx. 10% confluence and allowed to attach for 24 h. Growth medium was removed and fresh medium without FBS and containing the indicated concentration of test agent was added. Cells were incubated for the indicated periods of time at 37° C. in an atmosphere of 5% CO2 and 95% air. After incubation, cells were treated for 30 min with 0.4% (w/v) SRB dissolved in 1% acetic acid. Protein-bound dye was extracted with unbuffered 10 mM Tris base. Absorbance was measured at 560 nm using a computer-interfaced, 96-well microtiter plate reader.
c-di-GMP inhibits proliferation of human colon cancer cells. The potential therapeutic actions of c-di-GMP were examined on basal and growth factor-stimulated proliferation of cells derived from a moderately differentiated human cecal adenocarcinoma (H508 cells) that express M3 muscarinic (M3R) and epidermal growth factor (EGF) receptors (EGFR) (Cheng et al., 2003). Cell proliferation was determined using the validated sulforhodamine B (SRB) calorimetric assay (Skehan et al., 1990). H508 cells were incubated in the absence or presence of a growth stimulant, acetylcholine (300 μM) and EGF (1 ng/ml) alone or with increasing concentrations of c-di-GMP (0.5-50 μM). After a 5-day incubation, the highest concentration of c-di-GMP tested, 50 μM, reduced basal H508 cell proliferation by approx. 15% (FIG. 1; p<0.05 compared to control, Student's unpaired t-test).

[2] = system: NRK 52E cells (normal rat kidney cells); assay: Cytotoxicity on normal rat kidney cells using the Alamar blue assay; conditions: for decrease in fluorescence: 200 μM
Protocol: Toxicity assays in normal rat kidney cells (NRK). The toxicity of c-di-GMP in independent cell lines was tested. In these studies, acute (24 and 72 h) toxicity in NRK 52 E cells (normal rat kidney cells) was determined using the Alamar blue assay. NRK 52E cells are a rat renal tubule epithelial cell line originally cloned from a mixed culture termed NRK. The Alamar blue assay is designed to measure the proliferation of cell lines and is used routinely to determine the cytotoxicity of various chemicals. […] It is minimally toxic to most living cells.
Chemical toxicity on normal rat kidney cells. To assess chemical toxicity, the Alamar blue assay was performed using NRK 52E cells plated at near confluence in 96-well tissue culture plates (Costar). Cells were maintained in DMEM containing 10% FBS and penicillin/streptomycin in tissue culture flasks. Cells were harvested by trypsinization, resuspended in the basal medium and counted. NRK 52E cells were plated at a density of 4-5×10^4 cells/well. After a 24-h attachment/acclimation interval, the tissue culture media was aspirated and replaced with the appropriate test solution. For most experiments, 8 wells were used for each solution, i.e., each solution was tested in one column of 8 replicate wells. […] Plates were incubated for 24 or 72 h and observed under phase contrast microscopy. All solutions were aspirated and replaced with fresh DMEM containing Alamar blue dye (10% vol/vol). Plates were incubated at 37° C. for an additional 6 h after which fluorescence was measured using a fluorimetric plate reader (Cytofluor). Data were collected as raw fluorescence units and expressed as a percentage of the solvent control using average values from all 8 wells for each group (mean fluorescence test/mean fluorescence control×100=% control fluorescence).
(§1) Cell proliferation assay on normal rat kidney cells. To assess potential effects on cell proliferation, the Alamar blue assay was performed using NRK 52E cells. Cells were harvested as described for the toxicity assay and seeded in 96-well tissue culture plates at a density of about 3×10^3 cells/well and evaluated over a 96-h time frame. Cells were allowed to attach for 3 h in the basal, serum-containing DMEM medium. After attachment, the media was aspirated and replaced with test solutions according to the design described for the toxicity assay with the addition of the Alamar blue dye to each solution (as 10% vol/vol). The reduction of Alamar blue dye was measured in a fluorimetric plate reader (Cytofluor) at 24, 48, 72 and 96 h. Morphological observation was also performed to ensure that the cell patterns matched the fluorescence data. Data were collected as raw fluorescence units and expressed as a percentage of the solvent control using the average values from all 8 wells used for each group (mean fluorescence test/mean fluorescence control×100=% control fluorescence) at each time period. As a further check to ensure that Alamar blue was not itself exerting some growth or inhibitory effects the experiments were also performed by plating cells at the lower density with exposures for 72 h without Alamar blue in the media. After the 72-h growth period, the media was aspirated and fresh DMEM containing Alamar blue (10% vol/vol) was added to all wells. Cells were further incubated in the Alamar blue solution for 6 h and fluorescence measured and data collected and expressed as described.

[3] = system: NRK 52E cells (normal rat kidney cells); assay: Cell proliferation assay on normal rat kidney cells (Alamar blue, 24-96 h)
Protocol: as §1

[4] = increasing concentrations 0.5-50 μM, 5 days

Nc1nc(=O)c2ncn([C@@H]3OC4COP(=O)(O)O[C@H]5[C@@H](O)[C@H](n6cnc7c(=O)nc(N)[nH]c76)O[C@@H]5COP(=O)(O)OC4C3O)c2[nH]1 (stereo partly drawn) [c-di-GMP, Bis(3′-->5′)-cyclic diguanylic acid]
effect on basal H508 cell proliferation ([1]; 50 μM, 5 days incubation): inhibited
effect on EGF-induced H508 cell proliferation ([1]; 50 μM, 5 days): reduced to basal levels
effect on acetylcholine-induced H508 cell proliferation ([1]; 50 μM, 5 days): reduced to basal levels
reduction of basal H508 cell proliferation ([1]; 50 μM, basal (no stimulant), 5-day incubation): approx. 15%
effect on EGF-induced H508 cell proliferation [1, 4]: inhibit; also recorded: progressively inhibited
effect on acetylcholine-induced H508 cell proliferation [1, 4]: inhibit; also recorded: progressively inhibited
effect on basal H508 cell proliferation ([1]; increasing concentrations, 5 days (FIG. 1)): inhibit
effect on basal H508 cell proliferation ([1]; lower concentrations (below 50 μM), 5 days): did not significantly alter basal proliferation; also recorded: did not alter basal cell proliferation
decrease in fluorescence ([2]; 72 h confluent cells): 36%
decrease in fluorescence ([2]; 72 h non-confluent cells): 14%
toxicity on normal rat kidney cells ([2]; 400 μM, 24 h): nontoxic
fluorescence relative to the solvent control ([2]; 20, 40, 100 μM): no decease in fluorescence relative to the solvent control
toxicity on NRK cells ([2]; 200 and 400 μM, 72 h exposure): toxicity was observed
cytotoxicity on NRK cells ([2]; 24 h exposure): little evidence of cytotoxicity
cytotoxicity on normal rat kidney cells ([2]; all relevant biological concentrations / biologically relevant doses): no cytotoxicity
Fluorescence (% control) ([2]; c-di-GMP 20 μM, 24-h confluent): 98.5 % control
Fluorescence (% control) ([2]; c-di-GMP 20 μM, 72-h confluent): 98.0 % control
Fluorescence (% control) ([2]; c-di-GMP 20 μM, 72-h non-confluent): 97.0 % control
Fluorescence (% control) ([2]; c-di-GMP 40 μM, 24-h confluent): 99.4 % control
Fluorescence (% control) ([2]; c-di-GMP 40 μM, 72-h confluent): 98.0 % control
Fluorescence (% control) ([2]; c-di-GMP 40 μM, 72-h non-confluent): 99.0 % control
Fluorescence (% control) ([2]; c-di-GMP 100 μM, 24-h confluent): 99.7 % control
Fluorescence (% control) ([2]; c-di-GMP 100 μM, 72-h confluent): 92.2 % control
Fluorescence (% control) ([2]; c-di-GMP 200 μM, 24-h confluent): 101.6 % control
Fluorescence (% control) ([2]; c-di-GMP 200 μM, 72-h confluent): 64.2 % control
Fluorescence (% control) ([2]; c-di-GMP 200 μM, 72-h non-confluent): 86.0 % control
Fluorescence (% control) ([2]; c-di-GMP 400 μM, 24-h confluent): 96.2 % control
Fluorescence (% control) ([2]; c-di-GMP 400 μM, 72-h confluent): 40.0 % control
Fluorescence (% control) ([2]; c-di-GMP 400 μM, 72-h non-confluent): 3.0 % control
fluorescence (% of control), NRK cell proliferation ([3]; 100 μM, 48 h): 75 % of control fluorescence
fluorescence (% of control), NRK cell proliferation ([3]; 100 μM, 72 h): 87 % of control fluorescence
fluorescence (% of control), NRK cell proliferation ([3]; 100 μM, 96 h): 94 % control fluorescence
fluorescence (% of control), NRK cell proliferation ([3]; 200 μM, 96 h): 85 % of control
NRK cell proliferation ([3]; 200 μM, up to 96 h): retardation of cell proliferation that was much less pronounced than the 400-μM dose
NRK cell proliferation ([3]; 400 μM, 96-h period of exposure): little growth over the 96-h period of exposure
NRK cell proliferation ([3]; 5, 25 or 50 μM (data not shown)): not altered
